Laboratory results from US8334382B2, “Substituted biaryl piperazinyl-pyridine analogues” (Neurogen Corporation, priority 2004, dated 2012).

Biological target: T1, human capsaicin receptor (Homo sapiens, UniProt Q8NER1)
T1 construct: expressed in transfected cells; host or cells: HEK293, stably transfected with pBK-CMV construct
Test: Calcium mobilization assay, determination of antagonist activity
Type: cell-based
Conditions: capsaicin at EC50; cells expressing human capsaicin receptor; Example 6
In short: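 HEK293 cells stably expressing full-length human TRPV1, loaded with Fluo-3 AM in KRH buffer pH 7.4, preincubated with compound (final 1-5 µM) in the dark at room temperature for 0.5-6 h, then stimulated with capsaicin at its EC50. FLIPR fluorescence gave IC50 as concentration halving the capsaicin response.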

T1 sequence (Q8NER1 whole entry): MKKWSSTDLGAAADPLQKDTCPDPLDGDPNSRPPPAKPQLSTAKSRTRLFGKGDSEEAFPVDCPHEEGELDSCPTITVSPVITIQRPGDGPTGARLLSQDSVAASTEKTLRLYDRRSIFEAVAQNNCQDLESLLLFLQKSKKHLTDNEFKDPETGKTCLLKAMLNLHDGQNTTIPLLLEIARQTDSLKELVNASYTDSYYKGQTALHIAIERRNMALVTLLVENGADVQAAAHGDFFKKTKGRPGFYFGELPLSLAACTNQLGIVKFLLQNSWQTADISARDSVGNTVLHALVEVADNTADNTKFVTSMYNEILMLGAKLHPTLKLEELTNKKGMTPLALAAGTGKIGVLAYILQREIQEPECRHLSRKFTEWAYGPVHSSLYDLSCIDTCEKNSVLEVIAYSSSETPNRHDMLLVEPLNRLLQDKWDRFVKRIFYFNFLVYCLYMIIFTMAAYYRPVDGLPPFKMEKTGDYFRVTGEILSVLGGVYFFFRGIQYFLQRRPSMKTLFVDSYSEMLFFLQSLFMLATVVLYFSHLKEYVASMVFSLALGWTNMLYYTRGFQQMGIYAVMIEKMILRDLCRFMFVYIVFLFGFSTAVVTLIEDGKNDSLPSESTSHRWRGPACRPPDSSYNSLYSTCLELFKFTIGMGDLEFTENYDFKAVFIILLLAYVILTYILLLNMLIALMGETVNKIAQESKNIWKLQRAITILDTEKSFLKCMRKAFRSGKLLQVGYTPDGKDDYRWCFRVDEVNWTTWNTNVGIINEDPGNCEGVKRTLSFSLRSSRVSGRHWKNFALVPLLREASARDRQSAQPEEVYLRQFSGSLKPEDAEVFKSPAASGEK

`C[C@@H]1CN(c2ncc(C(=O)NCCO)cc2Cl)CCN1c1cc(-c2ccc(F)c(Cl)c2)nc(N2CCC[C@H]2C)n1` [Example 149, 5-Chloro-6-{4-[6-(3-chloro-4-fluoro-phenyl)-2-(2-(R)-methyl-pyrrolidin-1-yl)-pyrimidin-4-yl]-3-(R)-methyl-piperazin-1-yl}-N-(2-hydroxy-ethyl)-nicotinamide] showed an IC50 of no more than 1000 nM.

`CC1CCCN1c1nc(-c2ccc(F)cc2)cc(N2CCN(c3ncc(C(C)(C)O)cc3Cl)CC2)n1` (centres unmarked) [Example 147, 2-(5-Chloro-6-{4-[6-(4-fluoro-phenyl)-2-(2-methyl-pyrrolidin-1-yl)-pyrimidin-4-yl]-piperazin-1-yl}-pyridin-3-yl)-propan-2-ol] gave an IC50 of no more than 1000 nM.

Molecule `CC1CCCN1c1nc(-c2ccc(F)c(Cl)c2)cc(N2CCN(c3ncc(C(N)=O)cc3Cl)C[C@H]2C)n1` (stereo partly drawn) [Example 24, 5-Chloro-6-{4-[6-(3-chloro-4-fluoro-phenyl)-2-(2-methyl-pyrrolidin-1-yl)-pyrimidin-4-yl]-3-(R)-methyl-piperazin-l-yl}-nicotinamide] has an IC50 of no more than 1000 nM.

`Cc1cc(C(=O)NCCCN(C)C)cnc1N1CCN(c2cc(-c3ccc(F)cc3)nc(N3CCCC3C)n2)CC1` (centres unmarked) [Example 116, N-[3-(dimethylamino)propyl]-6-{4-[6-(4-fluorophenyl)-2-(2-methylpyrrolidin-1-yl)pyrimidin-4-yl]piperazin-1-yl}-5-methylnicotinamide] showed an IC50 of no more than 1000 nM.

Molecule `Cc1cc(C(=O)NC2CCC2)cnc1N1CCN(c2cc(-c3ccc(F)cc3)nc(N3CCCC3C)n2)CC1` (centres unmarked) [Example 107, N-cyclobutyl-6-{4-[6-(4-fluorophenyl)-2-(2-methylpyrrolidin-1-yl)pyrimidin-4-yl]piperazin-1-yl}-5-methylnicotinamide] has an IC50 of no more than 1000 nM.

For `C[C@@H]1CN(c2ncc(CC#N)cc2Cl)CCN1c1cc(-c2ccc(F)cc2)nc(N2CCC[C@H]2C)n1` [Example 100, (5-Chloro-6-{4-[6-(4-fluoro-phenyl)-2-(2-(R)-methyl-pyrrolidin-1-yl)-pyrimidin-4-yl]-3-(R)-methyl-piperazin-1-yl}-pyridin-3-yl)-acetonitrile], the IC50 was no more than 1000 nM.

Work on `Cc1cc(C(=O)O)cnc1N1CCN(c2cc(-c3ccc(F)cc3)nc(N3CCCC3C)n2)[C@H](C)C1` (stereo partly drawn) [Example 34, 6-{4-[6-(4-Fluoro-phenyl)-2-(2-methyl-pyrrolidin-1-yl)-pyrimidin-4-yl]-3-(R)-methyl-piperazin-1-yl}-5-methyl-nicotinic acid] yielded an IC50 of no more than 1000 nM.

Work on `COC(=O)c1cnc(N2CCN(c3cc(-c4ccc(F)c(Cl)c4)nc(N4CCCC4C)n3)[C@H](C)C2)c(Cl)c1` (stereo partly drawn) [Example 8, 5-Chloro-6-{4-[6-(3-chloro-4-fluoro-phenyl)-2-(2-methyl-pyrrolidin-1-yl)-pyrimidin-4-yl]-3-(R)-methyl-piperazin-1-yl}-nicotinic acid methyl ester] yielded an IC50 of no more than 1000 nM.

For `O=C(O)c1cccnc1N1CCN(c2cc(-c3ccc(F)c(Cl)c3)nc(N3CCOCC3)n2)CC1` [Example 3, 2-{4-[6-(3-Chloro-4-fluoro-phenyl)-2-morpholin-4-yl-pyrimidin-4-yl] - piperazin-1-yl}-nicotinic acid], the IC50 was no more than 1000 nM.

Work on `Cc1cc(C(=O)N2CCCC2)cnc1N1CCN(c2cc(-c3ccc(F)cc3)nc(N3CCCC3C)n2)CC1` (centres unmarked) [Example 122, 4-(4-fluorophenyl)-2-(2-methylpyrrolidin-1-yl)-6-{4-[3-methyl-5-(pyrrolidin-1-ylcarbonyl)pyridin-2-yl]piperazin-1-yl}pyrimidine] yielded an IC50 of no more than 1000 nM.

For `Cc1cc(CO)cnc1N1CCN(c2cc(-c3ccncc3)nc(N3CCCC3C)n2)CC1` (centres unmarked) [Example 73, (5-Methyl-6-{4-[2-(2-methyl-pyrrolidin-1-yl)-6-pyridin-4-yl-pyrimidin-4-yl]-piperazin-1-yl}-pyridin-3-yl)-methanol], the IC50 was no more than 1000 nM.

For `CC1CCCN1c1nc(-c2ccc(F)cc2)cc(N2CCN(c3ncc(C(=O)O)cc3Cl)CC2)n1` (centres unmarked) [Example 25, 5-Chloro-6-{4-[6-(4-fluoro-phenyl)-2-(2-methyl-pyrrolidin-1-yl)-pyrimidin-4-yl]-piperazin-1-yl}-nicotinic acid], the IC50 was no more than 1000 nM.

`COCCN1CCN(C(=O)c2cnc(N3CCN(c4cc(-c5ccc(F)cc5)nc(N5CCCC5C)n4)CC3)c(C)c2)CC1` (centres unmarked) [Example 132, 4-(4-fluorophenyl)-6-[4-(5-{[4-(2-methoxyethyl)piperazin-1-yl]carbonyl}-3-methylpyridin-2-yl)piperazin-1-yl]-2-(2-methylpyrrolidin-1-yl)pyrimidine] showed an IC50 of no more than 1000 nM.

Work on `Cc1cc(C(=O)O)cnc1N1CCN(c2cc(-c3ccnc(C(C)C)c3)nc(N3CCCC3C)n2)CC1` (centres unmarked) [Example 78, 6-{4-[6-(2-Isopropyl-pyridin-4-yl)-2-(2-methyl-pyrrolidin-1-yl)-pyrimidin-4-yl]-piperazin-1-yl}-5-methyl-nicotinic acid] yielded an IC50 of no more than 1000 nM.

In the case of `C[C@@H]1CN(c2ncc(CO)cc2Cl)CCN1c1cc(-c2ccc(F)c(Cl)c2)nc(N2CCCCC2)n1` [Example 173, (5-Chloro-6-{4-[6-(3-chloro-4-fluoro-phenyl)-2-piperidin-1-yl-pyrimidin-4-yl]-3-(R)-methyl-piperazin-1-yl}-pyridin-3-yl)-methanol], the IC50 is reported as no more than 1000 nM.

In the case of `CNCCc1cnc(N2CCN(c3cc(-c4ccc(F)c(Cl)c4)nc(N4CCC[C@H]4C)n3)[C@H](C)C2)c(Cl)c1` [Example 187, 2-[5-chloro-6-((3R)-4-{6-(3-chloro-4-fluorophenyl)-2-[(2R)-2-methylpyrrolidin-1-yl]pyrimidin-4-yl}-3-methylpiperazin-1-yl)pyridin-3-yl]-N-methylethanamine], the IC50 is reported as no more than 1000 nM.

With `Cc1cc(C(=O)O)cnc1N1CCN(c2cc(-c3ccccc3)nc(N3CCC[C@H]3C)n2)[C@H](C)C1` [Example 96, 5-Methyl-6-{3-(R)-methyl-4-[2-(2-(R)-methyl-pyrrolidin-1-yl)-6-phenyl-pyrimidin-4-yl]-piperazin-1-yl}-nicotinic acid] the IC50 was no more than 1000 nM.

`C[C@@H]1CN(c2ncc(CC(=O)O)cc2Cl)CCN1c1cc(-c2ccc(F)cc2)nc(N2CCC[C@H]2C)n1` [Example 101, (5-Chloro-6-{4-[6-(4-fluoro-phenyl)-2-(2-(R)-methyl-pyrrolidin-1-yl)-pyrimidin-4-yl]-3-(R)-methyl-piperazin-1-yl}-pyridin-3-yl)-acetic acid] gave an IC50 of no more than 1000 nM.

With `CC(O)c1cnc(N2CCN(c3cc(-c4ccc(F)cc4)nc(N4CCCC4C)n3)CC2)c(Cl)c1` (stereo not drawn) [Example 148, l-(5-Chloro-6-{4-[6-(4-fluoro-phenyl)-2-(2-methyl-pyrrolidin-1-yl)-pyrimidin-4-yl]-piperazin-1-yl}-pyridin-3-yl)-ethanol] the IC50 was no more than 1000 nM.

In the case of `CC1CCCN1c1nc(-c2cncc(Cl)c2)cc(N2CCN(c3ncc(C(=O)O)cc3Cl)C[C@H]2C)n1` (stereo partly drawn) [Example 52, 5-Chloro-6-{4-[6-(5-chloro-pyridin-3-yl)-2-(2-methyl-pyrrolidin-1-yl)-pyrimidin-4-yl]-3-(R)-methyl-piperazin-1-yl}-nicotinic acid], the IC50 is reported as no more than 1000 nM.

Molecule `CC1CCCN1c1nc(-c2ccc(F)c(Cl)c2)cc(N2CCN(c3ncc(C(=O)O)cc3Cl)CC2)n1` (centres unmarked) [Example 21, 5-Chloro-6-{4-[6-(3-chloro-4-fluoro-phenyl)-2-(2-methyl-pyrrolidin-1-yl)-pyrimidin-4-yl]-piperazin-1-yl}-nicotinic acid] has an IC50 of no more than 1000 nM.

Molecule `O=[N+]([O-])c1cccnc1N1CCN(c2cc(-c3ccc(F)c(Cl)c3)nc(N3CCOCC3)n2)CC1` [Example 4, 4-{4-(3-Chloro-4-fluoro-phenyl)-6-[4-(3-nitro-pyridin-2-yl)-piperazin-1-yl]-pyrimidin-2-yl}-morpholine] has an IC50 of no more than 1000 nM.

In the case of `COC1CCN(C(=O)c2cnc(N3CCN(c4cc(-c5ccc(F)cc5)nc(N5CCCC5C)n4)CC3)c(C)c2)CC1` (centres unmarked) [Example 141, 4-(4-fluorophenyl)-6-(4-{5-[(4-methoxypiperidin-1-yl)carbonyl]-3-methylpyridin-2-yl}piperazin-1-yl)-2-(2-methylpyrrolidin-1-yl)pyrimidine], the IC50 is reported as no more than 1000 nM.

Work on `CC(=O)NC1CCN(C(=O)c2cnc(N3CCN(c4cc(-c5ccc(F)cc5)nc(N5CCCC5C)n4)CC3)c(C)c2)C1` (stereo not drawn) [Example 140, N-{l-[(6-{4-[6-(4-fluorophenyl)-2-(2-methylpyrrolidin-1-yl)pyrimidin-4-yl]piperazin-1-yl}-5-methylpyridin-3-yl)carbonyl]pyrrolidin-3-yl}acetamide] yielded an IC50 of no more than 1000 nM.

`Cc1cc(C(N)=O)cnc1N1CCN(c2cc(-c3ccncc3)nc(N(C)C)n2)[C@H](C)C1` [Example 85, 6-[4-(2-Dimethylamino-6-pyridin-4-yl-pyrimidin-4-yl)-3-(R)-methyl-piperazin-1-yl]-5-methyl-nicotinamide] showed an IC50 of no more than 1000 nM.

Work on `CCOC(=O)c1cnc(N2CCN(c3cc(-c4ccccc4)nc(N4CCCC4C)n3)CC2)c(C)c1` (centres unmarked) [Example 54, 5-Methyl-6-{4-[2-(2-methyl-pyrrolidin-1-yl)-6-phenyl-pyrimidin-4-yl]-piperazin-1-yl}-nicotinic acid ethyl ester] yielded an IC50 of no more than 1000 nM.

In the case of `CC1CCCN1c1nc(-c2cncc(Cl)c2)cc(N2CCN(c3ncc(CO)cc3Cl)C[C@H]2C)n1` (stereo partly drawn) [Example 49, (5-Chloro-6-{4-[6-(5-chloro-pyridin-3-yl)-2-(2-methyl-pyrrolidin-1-yl)-pyrimidin-4-yl]-3-(R)-methyl-piperazin-1-yl}-pyridin-3-yl)-methanol], the IC50 is reported as no more than 1000 nM.

For `Cc1cc(-c2ncco2)cnc1N1CCN(c2cc(-c3ccc(F)cc3)nc(N3CCC[C@H]3C)n2)[C@H](C)C1` [Example 162, 4-(4-Fluoro-phenyl)-6-[2-(R)-methyl-4-(3-methyl-5-oxazol-2-yl-pyridin-2-yl)-piperazin-1-yl]-2-(2-(R)-methyl-pyrrolidin-1-yl)-pyrimidine], the IC50 was no more than 1000 nM.

Work on `CCOC(=O)c1cnc(N2CCN(c3cc(-c4cccc(C)c4)nc(N4CCCC4C)n3)[C@H](C)C2)c(C)c1` (stereo partly drawn) [Example 59, 5-Methyl-6-{3-(R)-methyl-4-[2-(2-methyl-pyrrolidin-1-yl)-6-m-tolyl-pyrimidin-4-yl]-piperazin-1-yl}-nicotinic acid ethyl ester] yielded an IC50 of no more than 1000 nM.
